In data set [1] the test system is HDACs (nuclear HeLa extract). As to the kind of experiment: pan-HDAC fluorescent biochemical assay with nuclear HeLa extract. The note with it: HDAC peptide substrate, 60 min at 37° C. The protocol: Substrate was synthesized in house. Stocks were prepared in DMSO (10 mM).
Compound working solution: Compounds dissolved in assay buffer at 4× Screening concentration. Activator solution: Trypsin (10 mg/mL) diluted 1:1600 in Assay Buffer containing 4 μM TSA.
Total reaction Volume: 40 μL
Reaction was allowed to run for 60 minutes at 37° C.
2. Combine in a white ½ area well plate: 10 μl of 4× compound (or buffer), 15 μl of substrate and 15 μl of HeLa extract. Mix well
3. Incubate at 37° C. for 60 min.
4. Prepare Activator solution. Dilute Trypsin 1:1600 in Assay Buffer+4μM TSA. 20 μl is needed per assay point.
5. Add 20 μl of prepared activator solution and mix thoroughly.
The hydroxamic-acid based compounds of the present invention were tested in the biochemical assay for their pan-HDAC inhibitory activity.

For a further data set, the system named is HCT-116 cells. Nature of the data set: MTS cell viability assay, HCT-116. In kind it is cell-based. Conditions: Homo sapiens, HCT-116, 72 h, read-out: HCT-116, IG50, MTS (uM). The protocol: (§1) The MTS cell viability assay was used to determine the potency of proliferation inhibitor with. MTS measures mitochondrial dehydrogenase activity and serves as surrogate readout for the number of viable cells.
(§2) For MTS assay, cells were plated in 96-well plates at 2000 cells per well and incubated in the presence of compounds for 72 hr. MTS was added to each well as instructed by manufacture (Promega) and plates were incubated for 4 h at 37° C. The absorbance of each well was measured at 490 nm using a microplate reader.
In general terms: Formazan colour is commonly taken as a measure of viable cells.

The target in a further data set is T1, HDAC1 (Homo sapiens, UniProt Q13547).
T1 construct: cell extract containing HDAC (HeLa in these experiments); endogenous in cells; host or cells: HeLa cell extract
Nature of the data set: HDAC-1 immunocapture fluorescent biochemical assay (HeLa lysate). Conditions: HDAC1 immunocaptured from HeLa extract. The protocol:
The HDAC-1 assay represents a novel immunocapture assay procedure. […] The HDAC1 is captured on a protein A coated plate using HDAC1 specific antibody, and is then allowed to react with the substrate.
This assay in performed in four general steps. In the first step (FIG. 1A), cell extract containing HDAC (HeLa in these experiments) is incubated with (cell signaling) rabbit polyclonal HDAC1 antibody (rabbit IgG antibody is used for background control) to allow binding of the enzyme to the antibody. In the second step, the complexed mixture is added to the protein A covered plate which captures the antibody. In the third step, after washing away unbound proteins, substrate and inhibitor are added and deacetylation is allowed to occur. […] The plate is then read on either Victor or Perkin Elmer Envision system using Umbilliferone filter set.
• A. HeLa extract complexed with HDAC1 antibody working solution (in DPBS):
Compound working solution (in HDAC buffer):
Compounds diluted in assay buffer at 2× Screening concentration. • D. Activator solution:
Trypsin (10 mg/mL) diluted 1:1600 in assay buffer containing 4 μM TSA.
Complexing of extract with antibody was carried out at room temperature for 60 min with rocking. Binding of complexes onto protein A plate was carried out at room temperature for 60 min in 50 μL. Reaction was carried out in […], in the protein A plate for 60 minutes at 37° C. 40 μL of the reaction was moved into white ½ area plate for activation and reading.
• 1. Set PIERCE Protein A plate to block with 150 μof 5% BSA in TB ST for 60 min at room temperature. • 2. […] Dilute complexes further ([…]) by addition of 3.5 mL of PBS (final total volume of 5 mL). • 4. Wash blocked protein A plate prior to complex addition with TBST. • 5. Add 50 μl of diluted complexes to Protein A plate and incubate for 60 min at room temperature. • 6. Wash plate with TB ST. • 7. Add 25 μl of diluted compounds (in HDAC buffer) to each well and incubate for 10 min at room temperature. • 8. […] Move 40 μl of reaction to a white plate and add 20 μl of activator/developer solution, mix thoroughly. • 10. Read plate.

In another data set the target is T2, HDAC6 (Homo sapiens, UniProt Q9UBN7).
T2 sequence (Q9UBN7 1-1215): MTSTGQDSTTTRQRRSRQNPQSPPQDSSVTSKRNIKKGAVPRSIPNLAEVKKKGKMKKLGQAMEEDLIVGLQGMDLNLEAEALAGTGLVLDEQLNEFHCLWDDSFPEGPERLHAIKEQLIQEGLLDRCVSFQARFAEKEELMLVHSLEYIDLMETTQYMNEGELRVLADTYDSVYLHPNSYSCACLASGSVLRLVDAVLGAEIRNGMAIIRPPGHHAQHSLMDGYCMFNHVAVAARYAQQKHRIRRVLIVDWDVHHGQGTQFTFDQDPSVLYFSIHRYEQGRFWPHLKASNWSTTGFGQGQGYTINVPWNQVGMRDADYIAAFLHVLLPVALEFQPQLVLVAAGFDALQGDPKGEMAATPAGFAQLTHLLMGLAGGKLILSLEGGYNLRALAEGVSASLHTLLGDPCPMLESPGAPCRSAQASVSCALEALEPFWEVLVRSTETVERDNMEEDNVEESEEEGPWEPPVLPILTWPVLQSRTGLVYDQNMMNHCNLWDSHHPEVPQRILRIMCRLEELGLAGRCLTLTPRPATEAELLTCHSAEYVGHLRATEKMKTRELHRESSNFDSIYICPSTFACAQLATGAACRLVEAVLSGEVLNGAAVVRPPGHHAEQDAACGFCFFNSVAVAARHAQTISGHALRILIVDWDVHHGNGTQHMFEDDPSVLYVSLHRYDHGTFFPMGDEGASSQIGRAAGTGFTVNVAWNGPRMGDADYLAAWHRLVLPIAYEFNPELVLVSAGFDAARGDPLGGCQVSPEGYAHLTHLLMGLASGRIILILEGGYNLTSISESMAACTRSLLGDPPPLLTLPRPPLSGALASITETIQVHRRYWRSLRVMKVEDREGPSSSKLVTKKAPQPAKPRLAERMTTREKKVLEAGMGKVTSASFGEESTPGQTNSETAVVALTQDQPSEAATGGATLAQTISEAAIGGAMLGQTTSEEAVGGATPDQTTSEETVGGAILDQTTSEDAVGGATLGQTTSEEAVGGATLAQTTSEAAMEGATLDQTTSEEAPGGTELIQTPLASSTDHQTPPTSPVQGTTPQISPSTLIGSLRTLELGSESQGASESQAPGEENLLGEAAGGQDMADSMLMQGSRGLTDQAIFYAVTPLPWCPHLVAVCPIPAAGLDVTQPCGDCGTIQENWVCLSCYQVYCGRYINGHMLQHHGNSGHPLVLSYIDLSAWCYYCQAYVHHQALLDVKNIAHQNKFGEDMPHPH
As to the kind of experiment: HDAC isoform assay, HDAC6.

Another data set relates to HH cells. Nature of the data set: MTS cell viability assay, HH. The note with it: Homo sapiens, 72 hr, read-out: HH, IG50, MTS. In kind it is cell-based. The protocol: The MTS cell viability assay was used to determine the potency of proliferation inhibitor with. MTS measures mitochondrial dehydrogenase activity and serves as surrogate readout for the number of viable cells. The protocol described below is based upon the “CellTiter 96 Aqueous Non-Radioactive Cell Proliferation Assay” sold by Promega (Technical Bulletin No. 169).
as §2

The target in the next data set is T3, HDAC3 (Homo sapiens, UniProt O15379).
T3 construct: purchased BioMol
As to the kind of experiment: HDAC isoform assay, HDAC3. The note with it: substrate KI-177; read-out: HDAC3, IC50, ELISA (KI-177). The class given is biochemical. For orientation: An ELISA detects its analyte on a solid surface through an enzyme-linked reagent.

The next data set deals with MJ cells. Nature of the data set: MTS cell viability assay, MJ. In kind it is cell-based. Conditions: 72 hr, read-out: MJ, IG50, MTS. The protocol: as §1, §2
The next data set has as its target T4, HDAC2 (Homo sapiens, UniProt Q92769).
T4 construct: purchased BioMol
Nature of the data set: HDAC isoform assay, HDAC2. The class given is biochemical. Conditions: substrate KI-177; read-out: HDAC2, IC50, ELISA (KI-177).

In another data set the target is HDAC5 (Homo sapiens, UniProt Q9UQL6). As to the kind of experiment: HDAC isoform assay, HDAC5.
Another data set has as its target T5, HDAC4 (Homo sapiens, UniProt P56524).
T5 construct: purchased BioMol
As to the kind of experiment: HDAC isoform assay, HDAC4. In kind it is biochemical. Conditions: substrate KI-177; read-out: HDAC4, IC50, ELISA (KI-177).

T1 sequence (Q13547 whole entry): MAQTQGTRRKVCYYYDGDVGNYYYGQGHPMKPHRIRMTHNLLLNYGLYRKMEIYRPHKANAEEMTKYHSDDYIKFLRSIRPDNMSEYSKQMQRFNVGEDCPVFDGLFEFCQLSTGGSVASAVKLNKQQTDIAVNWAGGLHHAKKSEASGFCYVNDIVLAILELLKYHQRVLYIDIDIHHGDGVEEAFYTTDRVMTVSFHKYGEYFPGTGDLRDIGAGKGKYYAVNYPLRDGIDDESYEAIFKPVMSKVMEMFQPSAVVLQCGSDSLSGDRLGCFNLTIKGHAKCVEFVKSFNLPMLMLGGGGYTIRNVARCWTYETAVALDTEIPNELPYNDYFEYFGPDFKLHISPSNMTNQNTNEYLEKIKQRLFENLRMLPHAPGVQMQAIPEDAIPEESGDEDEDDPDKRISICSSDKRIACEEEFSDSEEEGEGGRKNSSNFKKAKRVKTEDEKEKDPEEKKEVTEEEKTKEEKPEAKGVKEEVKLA
T4 sequence (Q92769 whole entry): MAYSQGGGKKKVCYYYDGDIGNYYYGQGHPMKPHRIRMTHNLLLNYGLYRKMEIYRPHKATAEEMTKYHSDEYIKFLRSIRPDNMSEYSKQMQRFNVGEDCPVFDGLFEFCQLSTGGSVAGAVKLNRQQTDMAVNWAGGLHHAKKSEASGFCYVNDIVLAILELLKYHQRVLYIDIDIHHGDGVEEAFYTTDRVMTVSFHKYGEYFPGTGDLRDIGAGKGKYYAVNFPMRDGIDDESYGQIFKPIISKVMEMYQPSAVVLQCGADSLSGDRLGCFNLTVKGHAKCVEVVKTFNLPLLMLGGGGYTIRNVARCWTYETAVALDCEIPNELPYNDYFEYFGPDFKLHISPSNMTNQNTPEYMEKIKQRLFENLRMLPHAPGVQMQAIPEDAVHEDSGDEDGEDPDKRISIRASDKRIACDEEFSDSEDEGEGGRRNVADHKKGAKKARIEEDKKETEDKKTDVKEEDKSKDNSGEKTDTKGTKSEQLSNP
T3 sequence (O15379 whole entry): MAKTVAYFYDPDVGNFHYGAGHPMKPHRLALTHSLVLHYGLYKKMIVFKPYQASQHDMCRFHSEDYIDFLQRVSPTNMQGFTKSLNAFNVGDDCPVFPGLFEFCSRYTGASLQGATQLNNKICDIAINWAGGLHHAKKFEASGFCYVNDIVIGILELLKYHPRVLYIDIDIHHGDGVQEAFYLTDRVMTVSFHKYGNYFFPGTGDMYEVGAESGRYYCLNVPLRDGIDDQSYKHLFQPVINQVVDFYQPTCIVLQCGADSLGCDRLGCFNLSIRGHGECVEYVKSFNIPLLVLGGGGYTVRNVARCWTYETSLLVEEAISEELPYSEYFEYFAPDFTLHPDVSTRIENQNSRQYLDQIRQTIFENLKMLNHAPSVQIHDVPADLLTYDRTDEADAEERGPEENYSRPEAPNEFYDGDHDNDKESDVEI
T3 sequence (O75376 395-489 partner limits assumed): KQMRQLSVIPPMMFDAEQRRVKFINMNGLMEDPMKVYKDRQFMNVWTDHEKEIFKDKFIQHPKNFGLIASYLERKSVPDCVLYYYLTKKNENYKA
Sequence of HDAC5 (Q9UQL6 whole entry, canonical isoform): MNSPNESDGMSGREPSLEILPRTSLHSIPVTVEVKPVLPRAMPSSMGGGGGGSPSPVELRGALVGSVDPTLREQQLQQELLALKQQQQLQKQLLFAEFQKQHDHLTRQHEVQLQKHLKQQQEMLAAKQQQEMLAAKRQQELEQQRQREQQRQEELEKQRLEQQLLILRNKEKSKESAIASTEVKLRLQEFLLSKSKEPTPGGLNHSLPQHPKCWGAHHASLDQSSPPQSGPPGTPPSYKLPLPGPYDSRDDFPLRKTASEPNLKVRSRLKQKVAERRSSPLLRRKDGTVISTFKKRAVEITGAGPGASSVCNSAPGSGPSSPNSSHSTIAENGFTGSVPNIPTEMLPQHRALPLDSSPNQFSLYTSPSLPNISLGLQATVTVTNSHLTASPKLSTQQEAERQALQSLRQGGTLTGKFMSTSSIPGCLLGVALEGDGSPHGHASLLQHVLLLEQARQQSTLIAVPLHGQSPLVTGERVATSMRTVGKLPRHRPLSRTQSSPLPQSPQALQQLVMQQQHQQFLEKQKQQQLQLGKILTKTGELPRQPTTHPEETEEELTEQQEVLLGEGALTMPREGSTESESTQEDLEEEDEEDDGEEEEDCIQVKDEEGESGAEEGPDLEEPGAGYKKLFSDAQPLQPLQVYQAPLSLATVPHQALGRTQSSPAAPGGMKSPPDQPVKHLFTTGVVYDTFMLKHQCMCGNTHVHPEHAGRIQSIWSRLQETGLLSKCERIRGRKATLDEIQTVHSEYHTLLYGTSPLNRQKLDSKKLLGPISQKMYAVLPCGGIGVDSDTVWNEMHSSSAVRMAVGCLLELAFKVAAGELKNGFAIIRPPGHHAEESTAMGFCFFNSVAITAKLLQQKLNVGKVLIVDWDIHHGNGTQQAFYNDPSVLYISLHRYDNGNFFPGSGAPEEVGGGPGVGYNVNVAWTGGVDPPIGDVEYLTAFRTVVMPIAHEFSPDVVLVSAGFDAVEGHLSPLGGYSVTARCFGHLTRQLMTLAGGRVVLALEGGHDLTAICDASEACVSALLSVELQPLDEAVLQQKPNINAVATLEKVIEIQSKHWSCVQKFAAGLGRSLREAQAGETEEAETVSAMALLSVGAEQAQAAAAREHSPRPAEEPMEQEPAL
T5 sequence (P56524 whole entry): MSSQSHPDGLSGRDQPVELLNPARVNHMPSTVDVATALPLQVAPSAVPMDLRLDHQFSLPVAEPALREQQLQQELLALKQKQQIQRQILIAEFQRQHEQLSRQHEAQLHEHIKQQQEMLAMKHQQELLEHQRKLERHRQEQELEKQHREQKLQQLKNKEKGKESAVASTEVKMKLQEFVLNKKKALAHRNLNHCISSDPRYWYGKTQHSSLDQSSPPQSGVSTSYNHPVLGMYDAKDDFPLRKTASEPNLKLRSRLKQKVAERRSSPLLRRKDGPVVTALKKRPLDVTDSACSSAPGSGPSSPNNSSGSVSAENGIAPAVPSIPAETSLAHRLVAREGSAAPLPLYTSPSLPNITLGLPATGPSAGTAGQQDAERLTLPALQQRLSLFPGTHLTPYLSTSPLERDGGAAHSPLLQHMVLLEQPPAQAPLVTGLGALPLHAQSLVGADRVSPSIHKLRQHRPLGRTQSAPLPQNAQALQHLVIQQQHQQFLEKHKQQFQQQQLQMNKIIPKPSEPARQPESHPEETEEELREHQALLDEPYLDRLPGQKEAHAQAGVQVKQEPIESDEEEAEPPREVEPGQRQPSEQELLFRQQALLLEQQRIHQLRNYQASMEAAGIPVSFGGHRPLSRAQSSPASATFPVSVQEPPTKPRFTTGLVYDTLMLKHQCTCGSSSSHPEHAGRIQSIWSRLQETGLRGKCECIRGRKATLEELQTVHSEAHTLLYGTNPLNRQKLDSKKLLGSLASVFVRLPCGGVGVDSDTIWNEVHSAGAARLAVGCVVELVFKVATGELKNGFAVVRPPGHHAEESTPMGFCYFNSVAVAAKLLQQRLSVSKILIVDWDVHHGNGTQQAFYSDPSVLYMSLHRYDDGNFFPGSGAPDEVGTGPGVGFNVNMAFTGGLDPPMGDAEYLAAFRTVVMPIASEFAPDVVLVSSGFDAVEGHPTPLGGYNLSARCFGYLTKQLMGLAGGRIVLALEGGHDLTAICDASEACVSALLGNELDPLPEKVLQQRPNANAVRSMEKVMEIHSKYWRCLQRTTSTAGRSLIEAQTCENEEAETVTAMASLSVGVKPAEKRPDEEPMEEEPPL
Experimental for HDAC3: The assay measures the ability of a small molecule to inhibit deacetylation of the substrate. Activator reagent recognizes the substrate only if the lysine has been deacetylated.
This homogeneous assay in performed in the same well without washing steps. The HDAC source, nuclear HeLa extract, is incubated with substrate in the presence of an inhibitor compound. At the end of the reaction time, activator solution, containing Trypsin and TSA, is added to stop the deacetylation reaction, and cleave the amino-coumarin from the deacetylated substrate. The plate is then read on either a Perkin Elmer Victor or Envision system using Umbilliferone filter set. […] The signal is directly proportional to the activity of HDACs and compound inhibition of HDAC is monitored by a decrease in signal.

Compound `O=C(CCCCCCCNC(=O)c1cn2c3c(cccc13)CCC2)NO` came in with a melting point of 174 to 176 °C.
In turn, `O=C(CCCCNC(=O)c1cn2c3c(cccc13)CCC2)NO` [compound 5, N-[5-(hydroxyamino)-5-oxopentyl]-5,6-dihydro-4H-pyrrolo[3,2,1-ij]quinoline-1-carboxamide] displayed a melting point of 179 to 181 °C. In [1], this compound returned an IC50 of 0.809 µM. In addition, the IC50 with HCT-116 cells was found to be 5.81 µM. Besides, at HDAC1, the IC50 was 0.583 µM.
For the compound `O=C(NO)c1ccc(CNC(=O)c2cn3c4c(cccc24)CCC3)cc1` [compound 6, N-{4-[(hydroxyamino)carbonyl]benzyl}-5,6-dihydro-4H-pyrrolo[3,2,1-ij]quinoline-1-carboxamide], the melting point is 191 to 192 °C. On HDAC6, the IC50 was found to be 0.00782 µM. Also, the IC50 with HH cells was found to be 0.091 µM. At HDAC3, the IC50 was 0.0265 µM. Moreover, in [1], the IC50 was 0.0708 µM. Further, in the data set with MJ cells, the IC50 worked out at 0.58 µM. Also, the IC50 with HCT-116 cells is 0.457 µM. The IC50 on HDAC2 amounted to 3 µM. This compound also displayed an IC50 against HDAC5 of 0.0369 µM.
Regarding `O=C(CCCCCCN(Cc1ccccc1)C(=O)c1cn2c3c(cccc13)CCC2)NO` [compound 14, N-benzyl-N-[7-(hydroxyamino)-7-oxoheptyl]-5,6-dihydro-4H-pyrrolo[3,2,1-ij]quinoline-1-carboxamide], the melting point fell in the range of 71 to 73 °C. The IC50 in data set [1] was 0.78 µM. In addition, the IC50 in the data set with HCT-116 cells is 3.8 µM.
`O=C(Cc1ccc(NC(=O)c2cn3c4c(cccc24)CCC3)cc1)NO` [compound 16, N-{4-[2-(hydroxyamino)-2-oxoethyl]phenyl}-5,6-dihydro-4H-pyrrolo[3,2,1-ij]quinoline-1-carboxamide] came in with a melting point of 199 to 202 °C. This compound also registered an IC50 in data set [1] of 2 µM.
In [1], `CC(=O)CCC1CCN(C(=O)c2cn3c4c(cccc24)CCC3)CC1` [compound 19, 4-[1-(5,6-dihydro-4H-pyrrolo[3,2,1-ij]quinolin-1-ylcarbonyl)piperidin-4-yl]butan-2-one] showed an IC50 of 20 µM.
Regarding `Nc1ccccc1NC(=O)CCCCCCNC(=O)c1cn2c3c(cccc13)CCC2` [compound 20, N-{7-[(2-aminophenyl)amino]-7-oxoheptyl}-5,6-dihydro-4H-pyrrolo[3,2,1-ij]quinoline-1-carboxamide], the melting point is 144 to 145 °C. This compound also had an IC50 in data set [1] of 4.39 µM.
The matching figures for `Nc1cc(Cl)c(Cl)cc1NC(=O)CCCCCCNC(=O)c1cn2c3c(cccc13)CCC2` [compound 21, N-{7-[(2-amino-4,5-dichlorophenyl)amino]-7-oxoheptyl}-5,6-dihydro-4H-pyrrolo[3,2,1-ij]quinoline-1-carboxamide]: 124 to 125 °C and 15.5 µM.
The corresponding values for `COc1cccc(-c2cn3cc(C(=O)NCCCCCCC(=O)NO)sc3n2)c1` [compound 22, N-[7-(hydroxyamino)-7-oxoheptyl]-6-(3-methoxyphenyl)imidazo[2,1-b][1,3]thiazole-2-carboxamide] are 209 to 211 °C and 0.487 µM.
With `O=C(CCCCCCNC(=O)c1cc2cccc3c2n1CCC3)NO` [compound 23, N-[7-(hydroxyamino)-7-oxoheptyl]-5,6-dihydro-4H-pyrrolo[3,2,1-ij]quinoline-2-carboxamide], the melting point was in the range of 160 to 161 °C. The same compound came in with an IC50 on HDAC6 of 0.043 µM. Further, at HDAC3, the IC50 came out at 0.037 µM. The IC50 at HDAC4 was 0.028 µM. In addition, at HDAC2, the IC50 stood at 3 µM. At HDAC1, the IC50 was found to be 0.017 µM.

A word on the melting point: it is the temperature of the solid-liquid transition.

The values are drawn from patent US20100261710A1, “HDAC Inhibitors” (ARQULE, INC., priority 2007, published 2010).
